For data set [1], the system named is Staphylococcus aureus ATCC 25923. Briefly: MIC by microbroth dilution, Staphylococcus aureus ATCC 25923. The following applies: ATCC25923, Mueller Hinton Broth, 37° C., 16-18 hrs, read-out: MIC, in vitro activity, Sa3. The data set is classed as cell-based. As for the experimental part:
(§1) The antibacterial spectrum and potency of a particular compound may be determined in a standard test system.
(§2) The minimum inhibitory concentrations (MIC's) of the compounds for the microorganisms listed in Table A were determined by preparing working solution for each compound of concentration of 128 μg/ml after dissolving it in DMSO. […] 30 μg/ml of Standard suspension of each organism which was prepared with turbidity equivalent to the 1:10 diluted 0.5 McFarland standard with density 10^7 CFU/ml, was added to each well to get approximately a density of 10^5 CFU/ml. These 96-well Tissue culture plate containing the test samples and positive and negative controls, were incubated at 37° C. for 16-18 hrs. The wells were visually inspected for growth and were also read at 630 nm by Automated Microplate Reader [(EL800) Trinity Biotech.] and the MIC's were recorded as the lowest concentration of drug which inhibits the growth of bacteria.
(§3) • Bp: Bacillus pumilus MTCC 1607 • S.e.: Staphylococcus epidermidis MTCC 155 • S.p.: Staphylococcus pyogenes MTCC 442 • S.a.1: Staphylococcus aureus MTCC 96 • S.a.2: Staphylococcus aureus ATCC 14154 • S.a.3: Staphylococcus aureus ATCC 25923 • S.a.4: Staphylococcus aureus ATCC 29213 • E.f.1: Enterococcus faecalis MTCC 439 • E.f.2: Enterococcus faecalis ATCC 14506 • K.0p.: Klebsiella pneumoniae ATCC 10031
On the technique in general: In broth dilution the organism is exposed to a series of concentrations in liquid medium.

Data set [2] concerns Enterococcus faecalis ATCC 14506. Briefly: MIC by microbroth dilution, Enterococcus faecalis ATCC 14506. The following applies: ATCC14506, Mueller Hinton Broth, 37° C., 16-18 hrs, read-out: MIC, in vitro activity, Ef2. The data set is classed as cell-based. As for the experimental part:
as §1, §2, §3

In data set [3] the test system is Pseudomonas aeruginosa ATCC 27853. Briefly: MIC by microbroth dilution, Pseudomonas aeruginosa ATCC 27853. It is filed as cell-based. The conditions noted are these: 37° C., 16-18 hrs; for MIC: ATCC27853, Mueller Hinton Broth, read-out: MIC, in vitro activity, Pa; for MIC, in vitro activity, Pa: Mueller Hinton Broth. As for the experimental part: as §1, §2
P.a.: Pseudomonas aeruginosa ATCC 27853

In data set [4] the test system is Bacillus pumilus MTCC 1607. Briefly: MIC by microbroth dilution, Bacillus pumilus MTCC 1607. It is filed as cell-based. The following applies: 37° C., 16-18 hrs; for MIC: MTCC1607, Mueller Hinton Broth, read-out: MIC, in vitro activity, Bp; for MIC, in vitro activity, Bp: Mueller Hinton Broth. The method, then: as §1, §2, §3
Data set [5] relates to Staphylococcus aureus MTCC 96. The data set can be described thus: MIC by microbroth dilution, Staphylococcus aureus MTCC 96. It is filed as cell-based. The following applies: 37° C., 16-18 hrs; for MIC: MTCC96, Mueller Hinton Broth, read-out: MIC, in vitro activity, Sa1; for MIC, in vitro activity, Sa1: Mueller Hinton Broth. The method, then: as §1, §2, §3
The subject of data set [6] is Staphylococcus aureus ATCC 14154. Briefly: MIC by microbroth dilution, Staphylococcus aureus ATCC 14154. It is filed as cell-based. The conditions noted are these: ATCC14154, Mueller Hinton Broth, 37° C., 16-18 hrs, read-out: MIC, in vitro activity, Sa2. The method, then: as §1, §2, §3
The subject of data set [7] is Staphylococcus epidermidis MTCC 155. The data set can be described thus: MIC by microbroth dilution, Staphylococcus epidermidis MTCC 155. The conditions noted are these: MTCC155, Mueller Hinton Broth, 37° C., 16-18 hrs, read-out: MIC, in vitro activity, Se. The data set is classed as cell-based. As for the experimental part:
as §1, §2, §3

Data set [8] deals with Staphylococcus aureus ATCC 29213. Briefly: MIC by microbroth dilution, Staphylococcus aureus ATCC 29213. It is filed as cell-based. The conditions noted are these: ATCC29213, Mueller Hinton Broth, 37° C., 16-18 hrs, read-out: MIC, in vitro activity, Sa4. The method, then: as §1, §2, §3
For data set [9], the system named is Staphylococcus pyogenes MTCC 442. Briefly: MIC by microbroth dilution, Staphylococcus pyogenes MTCC 442. The data set is classed as cell-based. The conditions noted are these: MTCC442, Mueller Hinton Broth, 37° C., 16-18 hrs, read-out: MIC, in vitro activity, Sp. As for the experimental part: as §1, §2, §3
For data set [10], the system named is Enterococcus faecalis MTCC 439. The data set can be described thus: MIC by microbroth dilution, Enterococcus faecalis MTCC 439. The data set is classed as cell-based. The conditions noted are these: 37° C., 16-18 hrs; for MIC: MTCC439, Mueller Hinton Broth, read-out: MIC, in vitro activity, Ef1. The method, then:
as §1, §2, §3

Values after ≈ are worked out from the molar mass of the structure shown.

A word on the MIC: it is the smallest concentration in the dilution series that meets the test's criterion for growth inhibition. What is called melting point is the temperature, or range, at which the solid turns liquid.

Regarding `O=C(O)c1cn(C2CC2)c2cc(N3CCNCC3)c(F)cc2c1=O` [Ciprofloxacin, ciprofloxacin, reference compound], the MIC in [1] is 0.5 mg/L (≈ 1.51 µM); in data set [2], 0.25 mg/L (≈ 0.754 µM); in data set [3], 0.5 mg/L (≈ 1.51 µM); in data set [4], under 0.12 mg/L; in data set [5], 0.25 mg/L (≈ 0.754 µM); in data set [6] it was 0.5 mg/L (≈ 1.51 µM). The MIC was determined as 0.25 mg/L (≈ 0.754 µM) in [7], 0.25 mg/L (≈ 0.754 µM) in [8], 0.5 mg/L (≈ 1.51 µM) in data set [9] and 0.25 mg/L (≈ 0.754 µM) in data set [10].

`COc1c(N2CCc3sccc3C2)c(F)cc2c(=O)c(C(=O)O)cn(C3CC3)c12` [Compound 13, 1-Cyclopropyl-7-(6,7-dihydro-4H-thieno[3,2-c]pyridin-5-yl)-6-fluoro-8-methoxy-4-oxo-1,4-dihydro-quinoline-3-carboxylic acid] had a melting point of 173 to 175 °C. In addition, in data set [1], the minimum inhibitory concentration (MIC) was 0.5 mg/L (≈ 1.21 µM). For the same compound, the MIC in data set [2] was determined as 0.25 mg/L (≈ 0.603 µM). The MIC in [3] worked out at 16 mg/L (≈ 38.6 µM). Also, the MIC in [4] was at most 0.12 mg/L. The MIC in [5] is at most 0.12 mg/L. The minimal inhibitory concentration (MIC) in data set [6] was at most 0.12 mg/L. Besides, the MIC in data set [7] was at most 0.12 mg/L. For the same compound, the MIC in data set [8] is 0.25 mg/L (≈ 0.603 µM). The MIC in [9] was at most 0.12 mg/L. Moreover, the MIC in data set [10] is at most 0.12 mg/L.

On to `O=C(O)c1cn(C2CC2)c2cc(N3CCc4sccc4C3)c(F)cc2c1=O` [Compound 14, 1-Cyclopropyl-7-(6,7-dihydro-4H-thieno[3,2-c]pyridin-5-yl)-6-fluoro-4-oxo-1,4-dihydro-quinoline-3-carboxylic acid], for which the MIC in data set [1] was 0.5 mg/L (≈ 1.3 µM); in data set [4], at most 0.12 mg/L; in [5], 0.25 mg/L (≈ 0.65 µM); in data set [6], 0.25 mg/L (≈ 0.65 µM); in [7] it was 0.25 mg/L (≈ 0.65 µM); in [8], 0.5 mg/L (≈ 1.3 µM).

As for `COc1c(N2CCc3sccc3C2)c(F)c([N+](=O)[O-])c2c(=O)c(C(=O)O)cn(C3CC3)c12` [Compound 15, 1-Cyclopropyl-7-(6,7-dihydro-4H-thieno[3,2-c]pyridin-5-yl)-6-fluoro-8-methoxy-5-nitro-4-oxo-1,4-dihydro-quinoline-3-carboxylic acid], the MIC in [4] stood at 0.25 mg/L (≈ 0.544 µM); in [5] it was 1 mg/L (≈ 2.18 µM).

With `O=C(O)c1cn(C2CC2)c2c(F)c(N3CCc4sccc4C3)c(F)c(F)c2c1=O` [Compound 16, 1-Cyclopropyl-7-(6,7-dihydro-4H-thieno[3,2-c]pyridin-5-yl)-5,6,8-fluoro-4-oxo-1,4-dihydro-quinoline-3-carboxylic acid], the “MIC, in vitro activity, Pa” value in data set [3] is over 64 mg/L. Moreover, the “MIC, in vitro activity, Bp” value in data set [4] was 0.25 mg/L (≈ 0.595 µM). Further, the “MIC, in vitro activity, Sa1” value in data set [5] is 0.25 mg/L (≈ 0.595 µM).

As to `Nc1c(F)c(N2CCc3sccc3C2)c(F)c2c1c(=O)c(C(=O)O)cn2C1CC1` [Compound 17, 5-Amino-1-cyclopropyl-7-(6,7-dihydro-4H-thieno[3,2-c]pyridin-5-yl)-6,8-difluoro-4-oxo-1,4-dihydro-quinoline-3-carboxylic acid], the MIC in data set [1] is 0.5 mg/L (≈ 1.2 µM); in data set [2], 0.25 mg/L (≈ 0.599 µM); in data set [3], 16 mg/L (≈ 38.3 µM); in [4], at most 0.12 mg/L; in data set [5], at most 0.12 mg/L; in [6], at most 0.12 mg/L. Further, the MIC in [7] was at most 0.12 mg/L; in data set [8] it was 0.25 mg/L (≈ 0.599 µM); in data set [9], at most 0.12 mg/L; in data set [10] it was at most 0.12 mg/L.

Regarding `COc1c(N2CCc3sc([N+](=O)[O-])cc3C2)c(F)cc2c(=O)c(C(=O)O)cn(C3CC3)c12` [Compound 19, 1-Cyclopropyl-6-fluoro-8-methoxy-7-(2-nitro-6,7-dihydro-4H-thieno[3,2-c]pyridin-5-yl)-4-oxo-1,4-dihydro-quinoline-3-carboxylic acid], the MIC in data set [2] is 0.25 mg/L (≈ 0.544 µM); in data set [3], 1 mg/L (≈ 2.18 µM); in data set [4], at most 0.12 mg/L; in [5], 0.25 mg/L (≈ 0.544 µM); in data set [7] it was at most 0.12 mg/L; in data set [9], at most 0.12 mg/L. In data set [10], the MIC was at most 0.12 mg/L.

Consider `COc1c(N2CCc3sc(C=O)cc3C2)c(F)cc2c(=O)c(C(=O)O)cn(C3CC3)c12` [Compound 20, 1-Cyclopropyl-6-fluoro-7-(2-formyl-6,7-dihydro-4H-thieno[3,2-c]pyridin-5-yl)-8-methoxy-4-oxo-1,4-dihydro-quinoline-3-carboxylic acid], for which the MIC is 8 mg/L (≈ 18.1 µM) in data set [3]; at most 0.12 mg/L in data set [4]; at most 0.12 mg/L in [5]; 0.25 mg/L (≈ 0.565 µM) in [7]; 0.25 mg/L (≈ 0.565 µM) in [9]; at most 0.12 mg/L in data set [10].

With `COc1c(N2CCc3sc(CO)cc3C2)c(F)cc2c(=O)c(C(=O)O)cn(C3CC3)c12` [Compound 21, 1-Cyclopropyl-6-fluoro-7-(2-hydroxymethyl-6,7-dihydro-4H-thieno[3,2-c]pyridin-5-yl)-8-methoxy-4-oxo-1,4-dihydro-quinoline-3-carboxylic acid], the MIC was 16 mg/L (≈ 36 µM) in data set [3]; at most 0.12 mg/L in data set [4]; 0.25 mg/L (≈ 0.562 µM) in data set [5]; 0.25 mg/L (≈ 0.562 µM) in data set [7]; 0.25 mg/L (≈ 0.562 µM) in data set [10].

In the case of `COc1c(N2CCc3sc(C(=O)O)cc3C2)c(F)cc2c(=O)c(C(=O)O)cn(C3CC3)c12` [Compound 22, 7-(2-carboxy-6,7-dihydro-4H-thieno[3,2-c]pyridin-5-yl)-1-cyclopropyl-6-fluoro-8-methoxy-4-oxo-1,4-dihydro-quinoline-3-carboxylic acid], the minimal inhibitory concentration (MIC) in data set [3] is over 16 mg/L; in data set [4] it was 0.5 mg/L (≈ 1.09 µM); in data set [5] it was 4 mg/L (≈ 8.72 µM); in data set [10], 8 mg/L (≈ 17.4 µM).

With `COc1c(N2CCc3occc3C2C)c(F)cc2c(=O)c(C(=O)O)cn(C3CC3)c12` (stereo not drawn) [Compound 23, 1-Cyclopropyl-6-fluoro-8-methoxy-7-(4-methyl-6,7-dihydro-4H-fluoro[3,2-c]pyridin-5-yl)-4-oxo-1,4-dihydro-quinoline-3-carboxylic acid], the “MIC, in vitro activity, Pa” value in [3] was over 16 mg/L. Besides, the “MIC, in vitro activity, Bp” value in data set [4] is reported as “≦0.12 μg/ml”. Also, the “MIC, in vitro activity, Sa1” value in data set [5] was 8 mg/L (≈ 19.4 µM). Besides, the “MIC, in vitro activity, Ef1” value in data set [10] (Mueller Hinton Broth) was determined as 2 mg/L (≈ 4.85 µM).

With `COc1c(N2CCNC(C)C2)c(F)cc2c(=O)c(C(=O)O)cn(C3CC3)c12` (stereo not drawn) [Gatifloxacin, gatifloxacin, reference compound], the MIC in [1] was 0.25 mg/L (≈ 0.666 µM); in data set [2], 0.5 mg/L (≈ 1.33 µM); in data set [3], 4 mg/L (≈ 10.7 µM); in data set [4] it was at most 0.12 mg/L; in data set [5], at most 0.12 mg/L; in data set [6], at most 0.12 mg/L. Further, the minimum inhibitory concentration (MIC) in [7] was at most 0.12 mg/L; in data set [8] it was 0.12 mg/L (≈ 0.32 µM); in data set [9], 0.5 mg/L (≈ 1.33 µM); in [10] it was 0.5 mg/L (≈ 1.33 µM).
